What was measured:
I57T-MiRP1/HERG channels = I57T-MiRP1/HERG channels (Homo sapiens, UniProt Q12809); assay: cell-based
[1] = molecular target: wild type MiRP1/HERG channels (Homo sapiens, UniProt Q12809+Q9Y6J6); assay: cell-based
[2] = molecular target: wild type MiRP1/HERG channels (Homo sapiens, UniProt Q12809); assay: cell-based; details: Ki (equilibrium inhibition constant), wild type MiRP1
Q9E-MiRP1 channels = Q9E-MiRP1 channels (Homo sapiens, UniProt Q12809+Q9Y6J6, Q9E); details: Abbott et al. (1999); cited from earlier work
Q9E-MiRP1 channels, sequence (Q9Y6J6 whole entry Q9E): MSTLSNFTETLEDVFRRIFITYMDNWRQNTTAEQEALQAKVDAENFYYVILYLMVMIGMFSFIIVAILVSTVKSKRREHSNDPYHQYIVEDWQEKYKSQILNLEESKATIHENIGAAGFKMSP
Q9E-MiRP1 channels, sequence (Q12809 whole entry): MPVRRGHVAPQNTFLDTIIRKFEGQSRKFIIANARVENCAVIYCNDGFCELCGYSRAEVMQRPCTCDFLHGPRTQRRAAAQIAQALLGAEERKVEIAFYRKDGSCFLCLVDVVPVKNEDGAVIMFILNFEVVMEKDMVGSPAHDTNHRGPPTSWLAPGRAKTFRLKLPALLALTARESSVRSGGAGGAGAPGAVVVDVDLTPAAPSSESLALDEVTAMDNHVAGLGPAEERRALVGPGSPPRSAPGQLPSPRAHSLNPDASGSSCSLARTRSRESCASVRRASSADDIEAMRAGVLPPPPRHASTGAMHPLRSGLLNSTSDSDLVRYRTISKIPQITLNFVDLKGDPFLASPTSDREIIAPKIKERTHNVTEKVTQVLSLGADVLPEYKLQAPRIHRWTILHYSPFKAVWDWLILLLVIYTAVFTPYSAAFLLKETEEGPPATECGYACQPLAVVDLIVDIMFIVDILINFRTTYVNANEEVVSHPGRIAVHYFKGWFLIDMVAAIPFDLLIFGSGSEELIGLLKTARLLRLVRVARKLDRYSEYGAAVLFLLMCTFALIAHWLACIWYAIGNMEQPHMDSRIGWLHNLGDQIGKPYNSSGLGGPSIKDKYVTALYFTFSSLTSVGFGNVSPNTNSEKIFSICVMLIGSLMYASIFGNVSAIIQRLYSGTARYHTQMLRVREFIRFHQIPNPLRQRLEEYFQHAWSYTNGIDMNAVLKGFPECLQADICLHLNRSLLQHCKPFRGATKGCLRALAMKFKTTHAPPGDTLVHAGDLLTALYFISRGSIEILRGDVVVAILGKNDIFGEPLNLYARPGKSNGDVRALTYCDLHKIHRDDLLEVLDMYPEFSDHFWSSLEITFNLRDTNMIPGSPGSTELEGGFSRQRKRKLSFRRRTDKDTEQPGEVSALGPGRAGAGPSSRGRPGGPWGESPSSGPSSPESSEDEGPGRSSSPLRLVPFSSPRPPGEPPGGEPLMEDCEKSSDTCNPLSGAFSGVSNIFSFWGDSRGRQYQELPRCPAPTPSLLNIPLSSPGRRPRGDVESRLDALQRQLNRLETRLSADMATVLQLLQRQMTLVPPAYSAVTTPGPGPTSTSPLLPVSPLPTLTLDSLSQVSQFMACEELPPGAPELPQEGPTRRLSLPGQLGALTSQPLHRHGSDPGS

wild type MiRP1/HERG channels (Homo sapiens, UniProt Q12809), sequence (Q12809 whole entry): as above
wild type MiRP1/HERG channels (Homo sapiens, UniProt Q12809), sequence (Q9Y6J6 whole entry, further chain): as the sequence (Q9Y6J6 whole entry Q9E) above, with E9Q counted along it
I57T-MiRP1/HERG channels, sequence (Q12809 whole entry): as the sequence (Q12809 whole entry) above
I57T-MiRP1/HERG channels, sequence (Q9Y6J6 whole entry I57T, further chain): as the sequence (Q9Y6J6 whole entry Q9E) above, with E9Q, I57T counted along it
wild type MiRP1/HERG channels (Homo sapiens, UniProt Q12809+Q9Y6J6), sequence (Q12809 whole entry): as the sequence (Q12809 whole entry) above
wild type MiRP1/HERG channels (Homo sapiens, UniProt Q12809+Q9Y6J6), sequence (Q9Y6J6 whole entry): as the sequence (Q9Y6J6 whole entry Q9E) above, with E9Q counted along it

Compound	Ki (I57T-MiRP1/HERG channels)	Level for half-maximal inhibition relative to plasma (therapeutic) levels in patients [1]	Ki [2]	Sensitivity of Q9E-MiRP1 channels to drug inhibition relative to wild type (Q9E-MiRP1 channels)
O=c1[nH]c2ccccc2n1CCCN1CCN(C(c2ccccc2)c2ccccc2)CC1 [oxatomide]	1880 nM	close to their therapeutic concentrations	422 nM	
CC[C@H]1OC(=O)[C@H](C)[C@@H](O[C@H]2C[C@@](C)(OC)[C@@H](O)[C@H](C)O2)[C@H](C)[C@@H](O[C@@H]2O[C@H](C)C[C@H](N(C)C)[C@H]2O)[C@](C)(OC)C[C@@H](C)C(=O)[C@H](C)[C@@H](O)[C@]1(C)O [clarithromycin]				three-fold more sensitive
